Values of other authors, collected in US11859018B2, “Peptoid-based chelating ligands for selective metal chelation” (TRIAD National Security, LLC., priority 2018, dated 2024).

For `O=C(N[C@H]1COC(=O)[C@@H](NC(=O)c2cccc(O)c2O)COC(=O)[C@@H](NC(=O)c2cccc(O)c2O)COC1=O)c1cccc(O)c1O` [enterobactin], the “stability constant for the Fe(III) complex, Log(Kβ)” value is given as 49.
